Data reported in article PMC5613016, “GRL-09510, a Unique P2-Crown-Tetrahydrofuranylurethane -Containing HIV-1 Protease Inhibitor, Maintains Its Favorable Antiviral Activity against Highly-Drug-Resistant HIV-1 Variants in vitro” (Scientific Reports, 2017).
Like-named read-outs stand apart in the source and are kept apart here.

Tests used:
HIV-1NL4-3 [1] = conditions: MT-4 cells, p24 assay, previously reported; and 22; cited from earlier work
HIV-1MDR/G [2] = system: HIV-1MDR/G; parameters: method as in earlier work; conditions: and 22, cited from earlier work; for EC50: PHA-PBMs, p24 assay, previously reported; for fold change in EC50 HIV-1MDR/G: compared to HIV-1WT/ERS104pre, previously reported data
HIV-1APV ^R 5μM [3] = system: HIV-1APV ^R 5μM; parameters: method as in earlier work; conditions: and 22, cited from earlier work; for EC50: MT-4 cells, p24 assay, previously reported, read-out: EC50 HIV-1APVR5M; for fold change in EC50 HIV-1APVR5M: compared to HIV-1NL4-3, previously reported data
[4] = system: HIV-1ERS104pre (wild-type); conditions: PHA-PBMs, p24 assay, previously reported; and 22; read-out: EC50 HIV-1WT/ERS104pre; cited from earlier work
HIV-1MDRmix DRV ^R 20P [5] = conditions: cited from earlier work
[6] = system: HIV-192UG029 (subtype A, X4); assay: p24 production inhibition in PHA-PBMC; format: cell-based, HIV-1; conditions: Human immunodeficiency virus 1, read-out: EC50 HIV-192UG029 (subtype A, X4)
Procedure: (§1) The susceptibility of HIV-1LAI or HIV-2ROD to various compounds was determined as previously described[20]–[22]. Briefly, MT-2 cells (10^4/ml) were exposed to 100 TCID50 of HIV-1LAI or HIV-2ROD in the presence or absence of various concentrations of compounds in 96-well plates and were incubated at 37 °C for 7 days. After incubation, 100 μl of the medium was removed from each well, 3-(4,5-dimetylthiazol-2-yl)-2,5-diphenyltetrazolium bromide (MTT) solution (10 μl, 7.5 mg/ml in PBS) was added to each well, followed by incubation at 37 °C for 2 h. […] To determine the sensitivity of clinically isolated HIV-1s to compounds, PHA-PBMC (10^6/ml) were exposed to 50 TCID50 of each HIV-1 and cultured in the presence or absence of various concentrations of compounds in 10-fold serial dilutions in 96-well plates. In determining the drug-susceptibility of certain laboratory HIV-1 strains, MT-4 cells were employed as target cells as previously described[23],[24]. MT-4 cells (10^5/ml) were exposed to 100 TCID50 of drug-resistant HIV-1s in the presence or absence of various concentrations of compounds and were incubated at 37 °C. On day 7, the supernatants were harvested and the amounts of p24 were determined by using a fully-automated chemiluminescent enzyme immunoassay system (Lumipulse f: Fujirebio, Tokyo)[35]–[37]. […] All assays were performed in duplicate, and EC50 shown in this report represent average values of two to four independent experiments. PHA-PBMCs were derived from a single donor in each independent experiment. The research protocols described in the present study were carried out in accordance with relevant guidelines and regulations, and were approved in Ethics Committee for Epidemiological and General Research at the Faculty of Life Sciences, Kumamoto University.

[7] = system: HIV-1ERS104pre (wild-type); assay: p24 production inhibition in PHA-PBMC; format: cell-based; conditions: Human immunodeficiency virus 1, PHA-PBMC, p24 Gag production
Procedure: as §1

HIV-1MDR/G [8] = assay: p24 production inhibition in PHA-PBMC; format: cell-based; conditions: for EC50: Human immunodeficiency virus 1, PHA-PBMC, p24 Gag production
Procedure: as §1

HIV-1BaL (subtype B, R5) = assay: p24 production inhibition in PHA-PBMC; format: cell-based; conditions: Human immunodeficiency virus 1, PHA-PBMC, p24 Gag production
Procedure: as §1

HIV-1MDRmix DRV ^R 20P [9] = assay: p24 production inhibition in PHA-PBMC; format: cell-based; conditions: for EC50: Human immunodeficiency virus 1, read-out: EC50 HIV-1MDRmix DRV ^R 20P, PHA-PBMC, p24 Gag production
Procedure: as §1

[10] = system: HIV-1ME46 (subtype B, X4/R5); assay: p24 production inhibition in PHA-PBMC; format: cell-based; conditions: Human immunodeficiency virus 1, PHA-PBMC, p24 Gag production
Procedure: as §1

HIV-1LPV ^R 5μM = assay: p24 production inhibition in MT-4 cells; format: cell-based; conditions: for EC50: Human immunodeficiency virus 1, MT4, read-out: EC50 HIV-1LPV ^R 5μM, MT-4 cells, p24 Gag production
Procedure: as §1

HIV-1NL4-3 [11] = assay: p24 production inhibition in MT-4 cells; format: cell-based; conditions: Human immunodeficiency virus 1, MT4, MT-4 cells, p24 Gag production, Table 3
Procedure: as §1

HIV-1APV ^R 5μM [12] = assay: p24 production inhibition in MT-4 cells; format: cell-based; conditions: for EC50: Human immunodeficiency virus 1, MT4, read-out: EC50 HIV-1APV ^R 5μM, MT-4 cells, p24 Gag production
Procedure: as §1

HIV-1ATV ^R 5μM = assay: p24 production inhibition in MT-4 cells; format: cell-based; conditions: for EC50: Human immunodeficiency virus 1, MT4, read-out: EC50 HIV-1ATV ^R 5μM, MT-4 cells, p24 Gag production
Procedure: as §1

HIV-1_9510 ^R 36P = assay: p24 production inhibition in MT-4 cells; format: cell-based; conditions: for EC50: Human immunodeficiency virus 1, MT4, read-out: EC50 HIV-19510RP36
Procedure: as §1

HIV-2ROD = assay: microbe, parasite or virus in culture; format: cell-based; conditions: for EC50: Human immunodeficiency virus 2, MT2, MT-2 cells, 100 TCID50, MTT assay, read-out: EC50 Against HIV-2ROD
Procedure: as §1

HIV-1LAI = assay: microbe, parasite or virus in culture; format: cell-based; conditions: for EC50: Human immunodeficiency virus 1, MT2, MT-2 cells, 100 TCID50, MTT assay, read-out: EC50 Against HIV-1LAI
Procedure: as §1

[13] = Cytotoxicity against MT-2 cells (MTT assay); format: cell-based; conditions: human
Procedure: as §1

HIV-1MDR/TM = assay: p24 production inhibition in PHA-PBMC; format: cell-based
Procedure: as §1

HIV-1MDR/B = assay: p24 production inhibition in PHA-PBMC; format: cell-based
Procedure: as §1

HIV-1MDR/C = assay: p24 production inhibition in PHA-PBMC; format: cell-based
Procedure: as §1

[14] = Human immunodeficiency virus 1, PHA-PBMC, p24 Gag production
[15] = compared to EC50 for HIV-1ERS104pre
[16] = number in parentheses, compared to HIV-1NL4-3

SMILES	EC50 (HIV-1NL4-3 [1])	EC50 (HIV-1MDR/G [2])	fold change in EC50 HIV-1MDR/G (HIV-1MDR/G [2])	EC50 (HIV-1APV ^R 5μM [3])	fold change in EC50 HIV-1APVR5M (HIV-1APV ^R 5μM [3])	EC50 [4]	EC50 [6]	EC50 [7]	EC50 (HIV-1MDR/G [8])	EC50 (HIV-1BaL (subtype B, R5))	EC50 (HIV-1MDRmix DRV ^R 20P [9])	EC50 [10]	EC50 (HIV-1LPV ^R 5μM)	EC50 (HIV-1NL4-3 [11])	EC50 (HIV-1APV ^R 5μM [12])	EC50 (HIV-1ATV ^R 5μM)	EC50 (HIV-1_9510 ^R 36P)	EC50 (HIV-2ROD)	EC50 (HIV-1LAI)	further results
COc1ccc(S(=O)(=O)N(CC(C)C)C[C@@H](O)[C@H](Cc2ccccc2)NC(=O)OC2CO[C@H]3OCC(F)(F)[C@@H]23)cc1 (some centres unmarked) [GRL-04810]	0.5 ± 0.5 nM	4 ± 1 nM	2	430 ± 20 nM	860	2.3 ± 0.1 nM	–	–	–	–	–	–	–	–	–	–	–	–	–	–
COc1ccc(S(=O)(=O)N(CC(C)C)C[C@@H](O)[C@H](Cc2ccccc2)NC(=O)O[C@H]2CO[C@H]3O[C@@H]4OCC[C@@H]4[C@H]32)cc1 [GRL-0519]	0.5 ± 0.1 nM	2.6 ± 1.3 nM	4	38 ± 0.9 nM	76	0.6 ± 0.2 nM	–	–	–	–	–	–	–	–	–	–	–	–	–	EC50 (HIV-1MDRmix DRV ^R 20P [5]; PHA-PBMs, p24 assay, previously reported, read-out: EC50 HIV-1MDRmixDRVR20P): 30 ± 9.8 nM; fold change in EC50 HIV-1MDRmixDRVR20P (HIV-1MDRmix DRV ^R 20P [5]; compared to HIV-1WT/ERS104pre, previously reported data): 50
CC(C)CN(C[C@@H](O)[C@H](Cc1ccccc1)NC(=O)O[C@H]1CO[C@H]2OCC[C@H]21)S(=O)(=O)c1ccc(N)cc1 [DRV, Darunavir]	–	–	–	–	–	–	5.5 ± 0.1 nM	4.4 ± 0.9 nM	20 ± 9 nM	1.8 ± 0.1 nM	300 ± 60 nM	2.3 ± 0.4 nM	34 ± 5 nM	4.5 ± 0.4 nM	410 ± 10 nM	24 ± 60 nM	41 ± 1 nM	14 ± 7 nM	5 ± 2 nM	CC50 at 7 days [13]: 101000 ± 8800 nM
COC(=O)N[C@H](C(=O)N[C@@H](Cc1ccccc1)[C@@H](O)CN(Cc1ccc(-c2ccccn2)cc1)NC(=O)[C@@H](NC(=O)OC)C(C)(C)C)C(C)(C)C [ATV, Atazanavir]	–	–	–	–	–	–	6 ± 3 nM	3.1 ± 0.6 nM	30 ± 10 nM	2 ± 1 nM	> 1000 nM	4.2 ± 0.5 nM	38 ± 1 nM	4.3 ± 0.9 nM	371 ± 8 nM	> 1000 nM	24 ± 1 nM	17 ± 3 nM	4 ± 1 nM	EC50 (HIV-1MDR/TM; [14]): 71 ± 8 nM; fold change of EC50 HIV-1MDR/TM (HIV-1MDR/TM; [15]): 23; fold change of EC50 HIV-1MDR/G (HIV-1MDR/G [8]; [15]): 10; fold change of EC50 HIV-1MDRmix DRV ^R 20P (HIV-1MDRmix DRV ^R 20P [9]; [15]): > 323; EC50 (HIV-1MDR/B; [14]): 360 ± 160 nM; fold change of EC50 HIV-1MDR/B (HIV-1MDR/B; [15]): 116; EC50 (HIV-1MDR/C; [14]): 50 ± 20 nM; fold change of EC50 HIV-1MDR/C (HIV-1MDR/C; [15]): 16; fold change of EC50 HIV-1LPV ^R 5μM (HIV-1LPV ^R 5μM; [16]): 9; fold change of EC50 HIV-1APV ^R 5μM (HIV-1APV ^R 5μM [12]; [16]): 86; fold change of EC50 HIV-1ATV ^R 5μM (HIV-1ATV ^R 5μM; [16]): > 233; fold change of EC50 HIV-19510RP36 (HIV-1_9510 ^R 36P; compared to EC50 for HIV-1NL4-3, Supplemental Table 3): 6; Selectivity Index (CC50/EC50) MT2/HIV-2ROD (HIV-2ROD; ratio of CC50 to EC50 against HIV-2ROD): 1,906; Selectivity Index (CC50/EC50) MT2/HIV-1LAI (HIV-1LAI; ratio of CC50 to EC50 against HIV-1LAI): 8,100; CC50 [13]: 32400 ± 1000 nM
